Reference: patent US20050106592A1, “Method for identifying a pharmacologically active substance” (priority 2002, published 2005)

Experiments:
[1] = target: T1, ACE from pig kidney (EC 3.4.15.1) (Sus scrofa, UniProt F1RRW5); format: biochemical; conditions: relative to Captopril
T1 construct: angiotensin-converting-enzyme derived from pig kidney; purchased Sigma; host or cells: pig kidney (tissue-derived enzyme)
T1 sequence (F1RRW5 34-1309): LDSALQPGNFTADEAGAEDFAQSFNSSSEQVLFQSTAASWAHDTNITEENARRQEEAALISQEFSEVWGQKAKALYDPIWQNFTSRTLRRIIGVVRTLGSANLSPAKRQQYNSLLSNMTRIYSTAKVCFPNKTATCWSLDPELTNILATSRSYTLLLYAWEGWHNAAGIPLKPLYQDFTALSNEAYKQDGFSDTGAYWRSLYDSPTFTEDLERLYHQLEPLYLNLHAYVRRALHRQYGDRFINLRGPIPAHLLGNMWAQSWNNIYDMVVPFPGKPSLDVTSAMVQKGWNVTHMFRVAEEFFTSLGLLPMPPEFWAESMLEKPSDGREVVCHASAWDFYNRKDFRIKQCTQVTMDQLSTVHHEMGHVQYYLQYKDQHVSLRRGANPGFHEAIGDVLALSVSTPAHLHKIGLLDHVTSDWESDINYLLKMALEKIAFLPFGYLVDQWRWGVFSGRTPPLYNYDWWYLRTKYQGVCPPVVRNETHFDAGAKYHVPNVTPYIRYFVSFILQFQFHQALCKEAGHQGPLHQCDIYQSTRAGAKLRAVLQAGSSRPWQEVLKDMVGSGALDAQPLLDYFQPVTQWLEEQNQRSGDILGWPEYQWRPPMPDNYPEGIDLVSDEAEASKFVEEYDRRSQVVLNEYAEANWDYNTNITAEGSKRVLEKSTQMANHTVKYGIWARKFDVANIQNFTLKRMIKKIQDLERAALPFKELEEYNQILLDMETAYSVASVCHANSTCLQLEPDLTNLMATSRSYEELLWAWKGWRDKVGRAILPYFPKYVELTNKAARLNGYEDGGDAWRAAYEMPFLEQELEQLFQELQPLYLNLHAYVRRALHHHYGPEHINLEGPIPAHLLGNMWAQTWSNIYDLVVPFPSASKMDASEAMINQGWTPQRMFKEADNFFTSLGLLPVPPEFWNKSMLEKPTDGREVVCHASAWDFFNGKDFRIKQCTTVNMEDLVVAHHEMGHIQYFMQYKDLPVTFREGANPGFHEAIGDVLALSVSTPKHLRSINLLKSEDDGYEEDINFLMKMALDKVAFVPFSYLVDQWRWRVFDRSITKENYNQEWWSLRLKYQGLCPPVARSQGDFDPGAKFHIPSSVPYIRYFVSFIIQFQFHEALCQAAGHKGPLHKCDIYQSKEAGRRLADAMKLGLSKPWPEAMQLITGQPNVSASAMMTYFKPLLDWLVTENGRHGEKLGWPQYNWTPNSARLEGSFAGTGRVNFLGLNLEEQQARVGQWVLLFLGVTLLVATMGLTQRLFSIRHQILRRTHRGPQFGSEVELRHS
Experimental: These peptides were investigated for their inhibitory effect using an in vitro-ACE-inhibitor-assay with an angiotensin-converting-enzyme derived from pig kidney. Hippuryl-histidyl-leucin was used as a substrate.
The assay was performed in 96 well HTRF-plates (Packard). The concentrations used for each well were: 1 mU ACE from pig kidney (EC 3.4.15.1 (Sigma)) in 30 μl of assay buffer (25 mM HEPES; 0,3 M NaCl, pH 8.2) and 20 μl inhibitor dissolved in assay buffer (0.35-200 μM). The reaction was started by adding 50 μl of 2 mM hippuryl-histidyl-leucin (Sigma) in assay buffer. The reaction was performed at room temperature (22° C.) for 30 minutes and terminated by adding 50 μl 1 M NaOH. Afterwards 50 μl of 0.5% ortho-phtalaldehyd (Sigma) in methanol were added, 5 minutes later followed by 50 μl of 2.5 M HCl-solution to stabilize the developed fluorescence product.
The results were used to calculate the % inhibition. The IC50-values were determined graphically from a curve showing the dose-reaction ratio.
In order to minimize errors due to time-dependent differences, all pipetting steps were performed in a precise time schedule.

[2] = system: normotensive Wister rats; assay: bradykinin-potentiating effect: blood pressure measurement in anaesthetized normotensive rats; format: in vivo, rat
Experimental: These experiments were conducted with normotensive rats and the short-time decrease of blood pressure induced by bradykinin (and caused by vasodilatation) was measured. […] Furthermore, S545 (also corresponds to proANP48-57) was also tested in vivo at hypertensive rats (FIG. 7).
In the in vivo experiments with normotensive rats the animals were previously anaesthetized and after blood pressure stabilization treated with a constant amount of bradykinin. Subsequently, either Captopril or human BPP were administered, again followed by a constant amount of bradykinin. Afterwards the maximal blood pressure drop was determined and, on the basis of bradykinin as a factor 1, the potentiating factor was determined. In the same way, the systolic and diastolic blood pressure, the percentage middle pressure decrease and the time required to come back to the baseline values were measured (see tables 4a to 4j). A detailed experimental description is given below.
The trials were conducted on female anaesthetized normotensive Wister rats with weight ranging from 210 to 240 g.
The peptide pANP48-57 used for the in vivo assays was synthesized by Biosynthan (Berlin) with a HPLC-determined purity of 98%. […]
The middle pressure was determined from the measured diastolic (pd) and systolic (ps) blood pressure by using the following formula: pm=(ps−pd)×0.42+pd.

In the case of CC(C)C[C@H](NC(=O)[C@H](C)N)C(=O)N[C@@H](CO)C(=O)N1CCC[C@H]1C(=O)N[C@@H](CC(C)C)C(=O)N1CCC[C@H]1C(=O)N[C@@H](CCC(=O)O)C(=O)N[C@H](C(=O)N1CCC[C@H]1C(=O)N1CCC[C@H]1C(=O)O)C(C)C [Peptide S545], the “dose necessary in the ACE-assay to reach the same effect as with Captopril” value [1] is reported as 1000 fold, the “molecular concentration required for the bradykinin-potentiating effect in vivo in comparison to Captopril” value ([2]; in vivo, relative to Captopril) is reported as 10 fold and the “bradykinin-potentiating effect (short-time decrease of blood pressure induced by bradykinin)” value ([2]; normotensive rats, anaesthetized, i.v.) is reported as “concentration dependent bradykinin-potentiating”.
